Measurements as given in publication PMC12584665, “In vitro and in vivo efficacy of vancomycin against Elizabethkingia species and the impact of increased vancomycin MICs” (Microbiology Spectrum, 2025).
Like-named read-outs stand apart in the source and are kept apart here.

Experiments:
[1] = system: Elizabethkingia anophelis; test: Broth microdilution (BMD) MIC; assay type: cell-based; details: for MIC: Elizabethkingia anophelis; for susceptibility category: all susceptibility tests, CLSI criteria for Enterococcus spp. (susceptible MIC <= 4 mg/L, zone >= 17 mm)
Text: (§1) Eighteen E. anophelis clinical isolates from the nationwide surveillance program (Taiwan Surveillance of Antimicrobial Resistance) were well characterized in our previous study ([7]) and were selected for susceptibility testing and minimum bactericidal concentration (MBC) assays. Among them, five isolates with different clonality (underlined strains in Fig. S1) were selected for the time-kill assays and in vivo experiments.
(§2) Broth microdilution, disc diffusion, Etest, and agar dilution assays were conducted following CLSI guidelines to determine vancomycin MICs ([8]). […] Criteria for Staphylococcus spp. were not adopted due to the lack of a zone diameter breakpoint. MBCs were determined following CLSI guidelines ([8]).

[2] = system: Elizabethkingia anophelis; test: Minimum bactericidal concentration (MBC) test; assay type: cell-based; details: for MBC: Elizabethkingia anophelis
Text: as §1, §2

[3] = system: Elizabethkingia anophelis; test: Etest MIC; assay type: cell-based
Text: as §1, §2

E. anophelis = test: Broth microdilution MIC of laboratory-induced and gene-edited mutants; assay type: cell-based, Elizabethkingia anophelis; details: for MIC: Elizabethkingia anophelis
Experimental: (§3) E. anophelis and non-anophelis species with baseline vancomycin MICs of 16–32 mg/L (Table 2) were well characterized in our previous study ([7]) and were included in the induction study. The induction of mutants with elevated vancomycin MICs was modified from a previous study ([18]). Briefly, 10^9 cfu of wild-type E. anophelis (2008S01-229) was plated on brain heart infusion agar (Becton Dickinson, Franklin Lakes, NJ, USA) with twofold multiples of vancomycin (32 –256 mg/L). Isolates from viable colonies were subjected to broth microdilution. Genomic comparison between the parental strain (2008S01-229) and elevated-MIC mutants was performed to identify the mutated gene conferring increased vancomycin MIC. To determine whether similar genetic changes occurred in other Elizabethkingia species, non-anophelis isolates were subjected to the same induction protocol. The corresponding target genes were then analyzed by Sanger sequencing to assess the presence of analogous mutations. The target gene related to elevated vancomycin MICs was also validated via scarless gene editing.
The suicide plasmid pUT-ermF, which contains two key selection markers: the ermF gene for erythromycin resistance and the sacB gene for sucrose sensitivity-based counterselection, was used as previously described ([19]). DNA fragments corresponding to the upstream and downstream flanking regions of the target gene were cloned into pUT-ermF. The recombinant plasmids were first introduced into E. coli S17–λpir and subsequently transferred into Elizabethkingia spp. via conjugation. The first recombination events were selected on LB agar containing 250 µg/mL erythromycin, and the second recombination (plasmid resolution) was selected by plating on LB agar with 10% sucrose (without NaCl). Colonies were screened and confirmed by PCR sequencing. Genome sequencing was carried out to confirm no other inadvertent changes.

E. bruuniana = test: Broth microdilution MIC of laboratory-induced mutants; assay type: cell-based
Experimental: as §3

E. meningoseptica = test: as above; assay type: cell-based; details: Elizabethkingia meningoseptica
Experimental: as §3

E. miricola = test: as above; assay type: cell-based
Experimental: as §3

E. ursingii = test: as above; assay type: cell-based
Experimental: as §3

[4] = system: Acinetobacter baumannii (LAC-4); test: Murine pneumonia model (model validation); assay type: in vivo, C57BL/6J mice; details: 8 mice per group
Experimental: For the pneumonia model, a bacterial suspension was mixed with 5% mucin from porcine stomach (type 3; Sigma-Aldrich, Saint Louis, USA). Seven-week-old C57BL/6J mice were anesthetized with isoflurane for 10 min. For each strain, the inoculum corresponded to the lowest dose that caused >80% mortality in preliminary testing. This inoculum (10⁶–10⁸ cfu, depending on strain) was delivered intratracheally to induce pneumonia. Two hours thereafter, mice received either high or human-equivalent doses of subcutaneous vancomycin (100 mg/kg or 25 mg/kg, respectively) or intraperitoneal teicoplanin (50 mg/kg) ([17]) twice daily for 3 days. Each group contained eight mice, and survival was monitored for 3 days.

[5] = E. anophelis clinical isolate 2008N05-106
[6] = E. anophelis clinical isolate 2008S01-229
[7] = E. anophelis clinical isolate 2014C06-157
[8] = E. anophelis clinical isolate 2016N17-576
[9] = E. anophelis clinical isolate 2018C04-213
[10] = E. anophelis clinical isolate 2018C04-224
[11] = E. anophelis clinical isolate 2018C07-210
[12] = E. anophelis clinical isolate 2018C07-234
[13] = E. anophelis clinical isolate 2018C08-127
[14] = E. anophelis clinical isolate 2018E03-151
[15] = E. anophelis clinical isolate 2018E04-135
[16] = E. anophelis clinical isolate 2018N16-057
[17] = E. anophelis clinical isolate 2018N17-036
[18] = E. anophelis clinical isolate 2018N17-073
[19] = E. anophelis clinical isolate 2018N17-153
[20] = E. anophelis clinical isolate 2018N21-226
[21] = E. anophelis clinical isolate 2018S09-023
[22] = E. anophelis clinical isolate 2018S11-172

CN[C@H](CC(C)C)C(=O)N[C@H]1C(=O)N[C@@H](CC(N)=O)C(=O)N[C@H]2C(=O)N[C@H]3C(=O)N[C@H](C(=O)N[C@H](C(=O)O)c4cc(O)cc(O)c4-c4cc3ccc4O)[C@H](O)c3ccc(c(Cl)c3)Oc3cc2cc(c3O[C@@H]2O[C@H](CO)[C@@H](O)[C@H](O)[C@H]2O[C@H]2C[C@](C)(N)[C@H](O)[C@H](C)O2)Oc2ccc(cc2Cl)[C@H]1O [Vancomycin]
non-susceptible: susceptibility category [1]
16 µg/mL: MIC ([1]; read-out: MIC, BMD, E. anophelis clinical isolate 2018C04-213) | MIC ([1]; read-out: MIC, BMD, E. anophelis clinical isolate 2018C04-224) | MIC ([1]; read-out: MIC, BMD, E. anophelis clinical isolate 2018C07-210) | MIC ([1]; read-out: MIC, BMD, E. anophelis clinical isolate 2018C07-234) | MIC ([1]; read-out: MIC, BMD, E. anophelis clinical isolate 2018C08-127) | MIC ([1]; read-out: MIC, BMD, E. anophelis clinical isolate 2018E03-151) | MIC ([1]; read-out: MIC, BMD, E. anophelis clinical isolate 2018E04-135) | MIC ([1]; read-out: MIC, BMD, E. anophelis clinical isolate 2018N16-057) | MIC ([1]; read-out: MIC, BMD, E. anophelis clinical isolate 2018N17-073) | MIC ([1]; read-out: MIC, BMD, E. anophelis clinical isolate 2018N17-153) | MIC ([1]; read-out: MIC, BMD, E. anophelis clinical isolate 2018N21-226) | MIC ([1]; read-out: MIC, BMD, E. anophelis clinical isolate 2018S09-023) | MBC [2, 5] | MBC [2, 7] | MBC [2, 9] | MBC [2, 10] | MBC [2, 11] | MBC [2, 12] | MBC [2, 13] | MBC [2, 14] | MBC [2, 15] | MBC [2, 16] | MBC [2, 18] | MBC [2, 19] | MBC [2, 20] | MBC [2, 21] | MIC [3, 6] | MIC [3, 7] | MIC [3, 8] | MIC [3, 9] | MIC [3, 10] | MIC [3, 11] | MIC [3, 12] | MIC [3, 13] | MIC [3, 14] | MIC [3, 15] | MIC [3, 16] | MIC [3, 17] | MIC [3, 18] | MIC [3, 19] | MIC [3, 21] | MIC (E. bruuniana; wild-type E. bruuniana parent strain, read-out: Parent strain MIC) | MIC (E. meningoseptica; wild-type E. meningoseptica parent strain, read-out: Parent strain MIC)
did not improve the survival: survival of A. baumannii-infected mice ([4]; 100 mg/kg subcutaneous twice daily)
resistant: susceptibility category ([1]; listed as vancomycin)
512 µg/mL: MIC (E. anophelis; induced E. anophelis mutant, pbp4 692InsC, Frameshift, 1 isolate) | MIC (E. anophelis; induced E. anophelis mutant, pbp4 736Del8bp, Frameshift, 1 isolate) | MIC (E. miricola)
256 µg/mL: MIC (E. bruuniana) | MIC (E. ursingii) | MIC (E. ursingii; {})
32 µg/mL: MIC ([1]; read-out: MIC, BMD, E. anophelis clinical isolate 2008N05-106) | MIC ([1]; read-out: MIC, BMD, E. anophelis clinical isolate 2008S01-229) | MIC ([1]; read-out: MIC, BMD, E. anophelis clinical isolate 2014C06-157) | MIC ([1]; read-out: MIC, BMD, E. anophelis clinical isolate 2016N17-576) | MIC ([1]; read-out: MIC, BMD, E. anophelis clinical isolate 2018N17-036) | MIC ([1]; read-out: MIC, BMD, E. anophelis clinical isolate 2018S11-172) | MIC ([1]; read-out: MICs as summarised in the discussion, E. anophelis, isolates not specified) | MBC [2, 6] | MBC [2, 8] | MBC [2, 17] | MBC [2, 22] | MIC [3, 22] | MIC (E. anophelis; wild-type E. anophelis parent strain (2008S01-229), read-out: Parent strain MIC) | MIC (E. miricola; wild-type E. miricola parent strain, read-out: Parent strain MIC) | MIC (E. ursingii; wild-type E. ursingii parent strain, read-out: Parent strain MIC)
64 µg/mL: MIC (E. meningoseptica; induced E. meningoseptica mutants, pbp4 827DelA, Frameshift, 2 isolates, one value each)
Lack of vancomycin (VAN) activity: activity in A. baumannii pneumonia model ([4]; 25 or 100 mg/kg subcutaneous twice daily, A. baumannii LAC-4)
128 µg/mL: MIC (E. anophelis; induced E. anophelis mutant, pbp4 827DelA, Frameshift, 1 isolate)
24 µg/mL: MIC [3, 5] | MIC [3, 20]
within a twofold range of MICs: MBCs relative to MICs ([2]; 18 E. anophelis isolates)
did not affect the vancomycin MIC: effect on MIC (E. anophelis; replacement of exbD with Thr28Pro mutation in 2008N05-106)
> 512 µg/mL: MIC (E. anophelis; scarless deletion of pbp4 in wild-type E. anophelis 2008N05-106, read-out: MIC)
16 to 32 mg/L: MICs, range over isolates ([1]; 18 E. anophelis isolates, broth microdilution, concordant with agar dilution and Etest)
